ChEMBL document CHEMBL3991601, “The target landscape of clinical kinase drugs” (Science, 2017)
Counter-ions that a name gives are not always drawn. Activity calls are given as the source filed them. Rule as the data show it, for most assays here: actives have a measured Kd and inactives only a lower limit.

Assays:
[1] = molecular target: Tyrosine-protein kinase Yes (Homo sapiens, UniProt P07947)
[2] = molecular target: T1, Tyrosine--tRNA ligase, cytoplasmic (Homo sapiens, UniProt P54577)
T1 sequence (P54577 whole entry): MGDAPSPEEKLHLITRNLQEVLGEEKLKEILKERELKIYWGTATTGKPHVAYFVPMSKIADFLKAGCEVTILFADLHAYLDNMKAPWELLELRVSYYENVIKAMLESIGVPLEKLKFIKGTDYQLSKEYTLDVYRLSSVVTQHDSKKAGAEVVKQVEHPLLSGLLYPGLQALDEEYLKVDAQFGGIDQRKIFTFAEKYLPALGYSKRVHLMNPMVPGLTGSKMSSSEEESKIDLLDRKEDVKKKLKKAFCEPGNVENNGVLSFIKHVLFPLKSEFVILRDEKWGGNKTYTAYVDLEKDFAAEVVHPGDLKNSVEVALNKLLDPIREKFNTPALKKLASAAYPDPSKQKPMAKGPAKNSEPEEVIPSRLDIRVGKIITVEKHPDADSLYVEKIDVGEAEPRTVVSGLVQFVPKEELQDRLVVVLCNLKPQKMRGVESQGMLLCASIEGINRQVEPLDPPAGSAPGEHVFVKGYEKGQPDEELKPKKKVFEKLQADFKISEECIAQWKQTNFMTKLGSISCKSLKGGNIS

[3] = molecular target: Serine/threonine-protein kinase/endoribonuclease IRE2 (Homo sapiens, UniProt Q76MJ5)
[4] = molecular target: Protein kinase C theta type (Homo sapiens, UniProt Q04759)
[5] = molecular target: DNA topoisomerase 2-alpha (Homo sapiens, UniProt P11388)
[6] = molecular target: High affinity nerve growth factor receptor (Homo sapiens, UniProt P04629)
[7] = molecular target: T2, Calcium/calmodulin-dependent protein kinase type IV (Homo sapiens, UniProt Q16566)
T2 sequence (Q16566 whole entry): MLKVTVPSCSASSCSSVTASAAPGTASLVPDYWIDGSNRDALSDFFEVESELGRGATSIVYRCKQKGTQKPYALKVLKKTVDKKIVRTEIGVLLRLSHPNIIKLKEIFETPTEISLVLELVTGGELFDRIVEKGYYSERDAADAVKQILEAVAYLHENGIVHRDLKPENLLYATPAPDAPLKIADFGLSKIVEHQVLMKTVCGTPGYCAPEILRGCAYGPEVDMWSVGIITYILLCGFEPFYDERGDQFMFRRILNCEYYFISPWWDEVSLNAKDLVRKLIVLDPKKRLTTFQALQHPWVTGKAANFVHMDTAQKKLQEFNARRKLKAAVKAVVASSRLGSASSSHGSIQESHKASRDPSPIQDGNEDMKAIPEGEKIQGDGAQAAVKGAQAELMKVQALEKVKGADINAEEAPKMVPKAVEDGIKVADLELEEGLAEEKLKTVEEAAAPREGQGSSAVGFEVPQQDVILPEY

[8] = molecular target: Protein kinase C beta type (Homo sapiens, UniProt P05771)
[9] = molecular target: T3, Serine/threonine-protein kinase TBK1 (Homo sapiens, UniProt Q9UHD2)
T3 sequence (Q9UHD2 whole entry): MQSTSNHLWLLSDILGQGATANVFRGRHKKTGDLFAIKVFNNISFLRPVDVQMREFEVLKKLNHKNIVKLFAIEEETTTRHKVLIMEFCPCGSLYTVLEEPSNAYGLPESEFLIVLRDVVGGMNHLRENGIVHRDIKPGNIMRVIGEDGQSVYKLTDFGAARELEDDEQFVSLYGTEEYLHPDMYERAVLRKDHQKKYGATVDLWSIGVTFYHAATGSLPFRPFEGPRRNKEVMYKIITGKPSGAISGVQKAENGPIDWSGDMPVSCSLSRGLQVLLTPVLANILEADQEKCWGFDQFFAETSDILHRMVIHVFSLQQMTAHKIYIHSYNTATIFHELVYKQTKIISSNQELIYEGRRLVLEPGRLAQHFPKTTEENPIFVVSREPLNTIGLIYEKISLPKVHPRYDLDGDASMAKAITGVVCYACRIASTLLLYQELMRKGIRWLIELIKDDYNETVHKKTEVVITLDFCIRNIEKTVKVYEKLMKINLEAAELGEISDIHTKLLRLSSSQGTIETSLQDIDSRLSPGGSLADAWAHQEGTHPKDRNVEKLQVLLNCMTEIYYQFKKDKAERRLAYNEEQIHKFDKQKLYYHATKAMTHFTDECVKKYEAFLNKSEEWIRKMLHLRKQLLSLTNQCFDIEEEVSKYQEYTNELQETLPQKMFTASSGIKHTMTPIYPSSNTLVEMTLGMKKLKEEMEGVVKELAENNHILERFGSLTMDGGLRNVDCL
Also: in the data inactive means no Kd found up to 30 µM.

Tyrosine-protein kinase Yes, sequence (P07947 whole entry): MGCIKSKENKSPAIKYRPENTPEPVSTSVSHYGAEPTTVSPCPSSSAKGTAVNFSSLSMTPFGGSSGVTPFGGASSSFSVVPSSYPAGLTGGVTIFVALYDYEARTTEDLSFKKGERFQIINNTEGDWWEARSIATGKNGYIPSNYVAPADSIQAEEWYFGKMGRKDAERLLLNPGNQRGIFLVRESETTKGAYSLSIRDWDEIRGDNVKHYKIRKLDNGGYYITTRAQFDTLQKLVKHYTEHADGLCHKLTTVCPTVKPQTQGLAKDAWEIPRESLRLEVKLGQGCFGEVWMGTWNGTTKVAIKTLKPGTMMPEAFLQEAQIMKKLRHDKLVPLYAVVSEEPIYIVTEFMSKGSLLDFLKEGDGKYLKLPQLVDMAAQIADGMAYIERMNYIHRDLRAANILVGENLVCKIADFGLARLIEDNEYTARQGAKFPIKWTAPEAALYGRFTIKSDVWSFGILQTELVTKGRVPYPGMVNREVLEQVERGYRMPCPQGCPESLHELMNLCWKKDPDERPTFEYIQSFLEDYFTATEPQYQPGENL
Protein kinase C theta type, sequence (Q04759 whole entry): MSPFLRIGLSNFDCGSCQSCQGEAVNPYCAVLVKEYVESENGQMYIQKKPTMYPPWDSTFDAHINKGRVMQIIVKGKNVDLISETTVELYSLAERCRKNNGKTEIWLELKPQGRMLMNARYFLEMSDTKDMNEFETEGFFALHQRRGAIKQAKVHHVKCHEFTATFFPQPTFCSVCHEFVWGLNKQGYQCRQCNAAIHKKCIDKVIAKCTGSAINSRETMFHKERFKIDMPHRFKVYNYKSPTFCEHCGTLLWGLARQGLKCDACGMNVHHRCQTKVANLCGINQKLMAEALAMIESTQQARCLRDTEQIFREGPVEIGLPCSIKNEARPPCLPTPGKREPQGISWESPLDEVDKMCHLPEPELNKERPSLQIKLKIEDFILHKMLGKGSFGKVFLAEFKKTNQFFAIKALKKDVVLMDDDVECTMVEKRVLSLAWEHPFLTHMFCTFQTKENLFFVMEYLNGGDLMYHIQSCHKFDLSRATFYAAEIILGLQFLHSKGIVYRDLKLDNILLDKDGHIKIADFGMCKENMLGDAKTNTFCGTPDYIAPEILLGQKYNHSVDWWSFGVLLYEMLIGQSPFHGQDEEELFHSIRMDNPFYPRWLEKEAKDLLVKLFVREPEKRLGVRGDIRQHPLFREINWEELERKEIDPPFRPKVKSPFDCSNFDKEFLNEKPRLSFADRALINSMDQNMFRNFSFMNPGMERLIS
Serine/threonine-protein kinase/endoribonuclease IRE2, sequence (Q76MJ5 whole entry): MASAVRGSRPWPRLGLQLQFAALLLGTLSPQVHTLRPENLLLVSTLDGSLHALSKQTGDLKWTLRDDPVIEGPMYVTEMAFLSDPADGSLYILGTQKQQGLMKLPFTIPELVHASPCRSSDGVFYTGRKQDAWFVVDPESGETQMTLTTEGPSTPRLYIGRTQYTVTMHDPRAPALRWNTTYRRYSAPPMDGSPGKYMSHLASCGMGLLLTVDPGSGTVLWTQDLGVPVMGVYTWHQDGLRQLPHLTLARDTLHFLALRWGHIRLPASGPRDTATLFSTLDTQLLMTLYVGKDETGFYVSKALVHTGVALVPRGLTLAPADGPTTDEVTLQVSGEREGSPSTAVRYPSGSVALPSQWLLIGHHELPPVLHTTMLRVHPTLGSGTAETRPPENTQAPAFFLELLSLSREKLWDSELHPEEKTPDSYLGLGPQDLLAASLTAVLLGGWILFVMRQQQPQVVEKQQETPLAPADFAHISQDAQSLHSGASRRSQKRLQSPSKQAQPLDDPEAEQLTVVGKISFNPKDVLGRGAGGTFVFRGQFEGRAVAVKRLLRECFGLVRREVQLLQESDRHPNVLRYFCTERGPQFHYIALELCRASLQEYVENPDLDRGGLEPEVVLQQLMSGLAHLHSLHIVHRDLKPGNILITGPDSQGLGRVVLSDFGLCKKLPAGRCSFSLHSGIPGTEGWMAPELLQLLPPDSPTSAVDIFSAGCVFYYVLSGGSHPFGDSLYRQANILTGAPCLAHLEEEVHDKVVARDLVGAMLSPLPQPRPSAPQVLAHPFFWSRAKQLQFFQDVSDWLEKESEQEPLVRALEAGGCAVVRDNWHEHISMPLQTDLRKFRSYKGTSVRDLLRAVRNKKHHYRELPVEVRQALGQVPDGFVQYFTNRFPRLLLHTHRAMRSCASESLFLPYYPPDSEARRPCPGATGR
Protein kinase C beta type, sequence (P05771 whole entry): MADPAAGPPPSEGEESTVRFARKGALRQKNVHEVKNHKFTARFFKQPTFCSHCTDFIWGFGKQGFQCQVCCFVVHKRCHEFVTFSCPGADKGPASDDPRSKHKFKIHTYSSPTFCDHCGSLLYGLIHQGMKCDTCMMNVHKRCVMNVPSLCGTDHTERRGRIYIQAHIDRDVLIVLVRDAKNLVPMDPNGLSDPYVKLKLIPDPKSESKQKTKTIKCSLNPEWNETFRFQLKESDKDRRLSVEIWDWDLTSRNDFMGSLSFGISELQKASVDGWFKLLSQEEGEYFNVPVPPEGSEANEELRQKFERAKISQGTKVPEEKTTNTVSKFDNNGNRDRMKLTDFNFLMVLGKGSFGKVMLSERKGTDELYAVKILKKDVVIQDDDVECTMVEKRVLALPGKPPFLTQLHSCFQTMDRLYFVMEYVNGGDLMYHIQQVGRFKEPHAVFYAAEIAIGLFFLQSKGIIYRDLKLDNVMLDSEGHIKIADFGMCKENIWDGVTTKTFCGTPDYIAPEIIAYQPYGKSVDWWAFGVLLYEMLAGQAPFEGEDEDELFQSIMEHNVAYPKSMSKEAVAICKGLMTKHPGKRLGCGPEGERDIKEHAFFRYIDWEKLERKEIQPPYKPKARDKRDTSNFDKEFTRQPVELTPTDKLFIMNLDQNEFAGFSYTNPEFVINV
High affinity nerve growth factor receptor, sequence (P04629 whole entry): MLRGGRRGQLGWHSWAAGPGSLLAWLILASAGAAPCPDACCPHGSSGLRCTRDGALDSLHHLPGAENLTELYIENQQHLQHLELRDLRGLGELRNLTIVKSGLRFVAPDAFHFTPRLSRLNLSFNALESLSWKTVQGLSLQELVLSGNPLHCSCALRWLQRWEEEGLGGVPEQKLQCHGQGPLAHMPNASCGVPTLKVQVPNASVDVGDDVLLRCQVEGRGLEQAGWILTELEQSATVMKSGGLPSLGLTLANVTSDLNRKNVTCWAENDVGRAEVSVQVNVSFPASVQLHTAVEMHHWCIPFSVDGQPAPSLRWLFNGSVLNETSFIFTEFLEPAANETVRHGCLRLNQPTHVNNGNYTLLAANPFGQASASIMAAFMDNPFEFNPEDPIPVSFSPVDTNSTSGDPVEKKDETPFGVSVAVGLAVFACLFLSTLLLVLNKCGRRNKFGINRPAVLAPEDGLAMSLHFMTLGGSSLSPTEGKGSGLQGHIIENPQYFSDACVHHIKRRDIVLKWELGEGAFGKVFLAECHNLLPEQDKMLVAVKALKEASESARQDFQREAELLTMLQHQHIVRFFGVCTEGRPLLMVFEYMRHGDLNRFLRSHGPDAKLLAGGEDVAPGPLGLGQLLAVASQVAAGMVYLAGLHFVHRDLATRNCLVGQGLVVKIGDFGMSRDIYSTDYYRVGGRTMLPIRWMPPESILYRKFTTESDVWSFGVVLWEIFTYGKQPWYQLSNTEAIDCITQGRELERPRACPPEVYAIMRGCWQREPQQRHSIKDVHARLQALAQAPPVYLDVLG

SMILES | Kd [1] | Kd [2] | Kd [3] | Kd [4] | Kd [5] | Kd [6] | Kd [7] | Kd [8] | Kd [9]
Cc1cc(Nc2ncc(Cl)c(Nc3ccccc3S(=O)(=O)C(C)C)n2)c(OC(C)C)cc1C1CCNCC1 [CERITINIB] | > 30 µM (inactive) | > 30 µM (inactive) | > 30 µM (inactive) | > 30 µM (inactive) | > 30 µM (inactive) | > 30 µM (inactive) | 0.635 µM (active) | > 30 µM (inactive) | > 30 µM (inactive)
Cc1nc2cc(-n3ncc(C(=O)c4cc5ccccc5[nH]4)c3N)ccc2[nH]1 [FGFR INHIBITOR DEBIO 1347] | > 30 µM (inactive) | > 30 µM (inactive) | > 30 µM (inactive) | > 30 µM (inactive) | > 30 µM (inactive) | > 30 µM (inactive) | – | > 30 µM (inactive) | > 30 µM (inactive)
C[C@@H](N)c1ccc(C(=O)Nc2ccnc3[nH]ccc23)cc1 [Y-39983] | > 30 µM (inactive) | > 30 µM (inactive) | > 30 µM (inactive) | 0.09 µM (active) | > 30 µM (inactive) | > 30 µM (inactive) | > 30 µM (inactive) | 6.03 µM (active) | > 30 µM (inactive)
N#CC1(c2ccc(NC(=O)c3cccnc3NCc3ccncc3)cc2)CCCC1 [RIVOCERANIB] | > 30 µM (inactive) | > 30 µM (inactive) | > 30 µM (inactive) | > 30 µM (inactive) | > 30 µM (inactive) | > 30 µM (inactive) | > 30 µM (inactive) | > 30 µM (inactive) | > 30 µM (inactive)
CO[C@H]1C[C@@H]2CC[C@@H](C)[C@@](O)(O2)C(=O)C(=O)N2CCCC[C@H]2C(=O)O[C@H]([C@H](C)C[C@@H]2CC[C@@H](O)[C@H](OC)C2)CC(=O)[C@H](C)/C=C(\C)[C@@H](O)[C@@H](OC)C(=O)[C@H](C)C[C@H](C)/C=C/C=C/C=C/1C [SIROLIMUS] | > 30 µM (inactive) | > 30 µM (inactive) | > 30 µM (inactive) | > 30 µM (inactive) | > 30 µM (inactive) | > 30 µM (inactive) | > 30 µM (inactive) | > 30 µM (inactive) | > 30 µM (inactive)
O=C(Nc1cc(C(F)(F)F)cc(C(F)(F)F)c1)c1cc(Cl)ccc1O [IMD-0354] | > 30 µM (inactive) | > 30 µM (inactive) | > 30 µM (inactive) | > 30 µM (inactive) | > 30 µM (inactive) | > 30 µM (inactive) | > 30 µM (inactive) | > 30 µM (inactive) | > 30 µM (inactive)
Cc1cc(Nc2ncnc3ccc(NC4=NC(C)(C)CO4)cc23)ccc1Oc1ccn2ncnc2c1 [TUCATINIB] | > 30 µM (inactive) | > 30 µM (inactive) | > 30 µM (inactive) | > 30 µM (inactive) | > 30 µM (inactive) | > 30 µM (inactive) | > 30 µM (inactive) | > 30 µM (inactive) | > 30 µM (inactive)
CCS(=O)(=O)N1CCN(c2ccc(Nc3ncc(C(N)=O)c(NC4CC4)n3)cc2)CC1 [Cerdulatinib Hydrochloride] | > 30 µM (inactive) | – | > 30 µM (inactive) | > 30 µM (inactive) | > 30 µM (inactive) | > 30 µM (inactive) | > 30 µM (inactive) | > 30 µM (inactive) | –
CCCCCCCCCCCCCCCCCCOP(=O)([O-])OC1CC[N+](C)(C)CC1 [PERIFOSINE] | > 30 µM (inactive) | > 30 µM (inactive) | > 30 µM (inactive) | > 30 µM (inactive) | – | > 30 µM (inactive) | > 30 µM (inactive) | > 30 µM (inactive) | > 30 µM (inactive)
O=C(Nc1nc2cccc(-c3ccc(CN4CCS(=O)(=O)CC4)cc3)n2n1)C1CC1 [FILGOTINIB] | > 30 µM (inactive) | > 30 µM (inactive) | > 30 µM (inactive) | > 30 µM (inactive) | – | > 30 µM (inactive) | > 30 µM (inactive) | > 30 µM (inactive) | > 30 µM (inactive)
CN1CCN(CCOc2cc(OC3CCOCC3)c3c(Nc4c(Cl)ccc5c4OCO5)ncnc3c2)CC1 [SARACATINIB] | – | > 30 µM (inactive) | > 30 µM (inactive) | > 30 µM (inactive) | > 30 µM (inactive) | > 30 µM (inactive) | > 30 µM (inactive) | > 30 µM (inactive) | > 30 µM (inactive)
COc1c(OCCCN2CCOCC2)ccc2c1N=C(NC(=O)c1cnc(N)nc1)N1CCN=C21 [COPANLISIB] | > 30 µM (inactive) | > 30 µM (inactive) | > 30 µM (inactive) | > 30 µM (inactive) | – | > 30 µM (inactive) | > 30 µM (inactive) | > 30 µM (inactive) | > 30 µM (inactive)
C=CC(=O)Nc1cc2c(Nc3ccc(F)c(Cl)c3)ncnc2cc1C#CC(C)(C)N1CCN(C)CC1 [AV-412 FREE BASE] | 6.27 µM (active) | > 30 µM (inactive) | > 30 µM (inactive) | > 30 µM (inactive) | > 30 µM (inactive) | > 30 µM (inactive) | – | > 30 µM (inactive) | > 30 µM (inactive)

More lines, now with the values ahead:

Kd [1] | Kd [2] | Kd [3] | Kd [4] | Kd [5] | Kd [6] | Kd [7] | Kd [8] | Kd [9] | SMILES
> 30 µM (inactive) | > 30 µM (inactive) | > 30 µM (inactive) | > 30 µM (inactive) | > 30 µM (inactive) | > 30 µM (inactive) | > 30 µM (inactive) | > 30 µM (inactive) | > 30 µM (inactive) | CN(C[C@@H]1COCCO1)S(=O)(=O)Nc1ccc2ccc3ncc(-c4cnn(C)c4)cc3c(=O)c2c1 [MK-2461]
> 30 µM (inactive) | > 30 µM (inactive) | > 30 µM (inactive) | > 30 µM (inactive) | > 30 µM (inactive) | 5.95 µM (active) | > 30 µM (inactive) | > 30 µM (inactive) | > 30 µM (inactive) | CCn1cc(-c2ccnc3[nH]c(-c4cccc(CN(C)C)c4)cc23)c(-c2ccc(NC(=O)N(C)C)cc2)n1 [GSK-1070916]
0.171 µM (active) | > 30 µM (inactive) | > 30 µM (inactive) | > 30 µM (inactive) | > 30 µM (inactive) | 0.006 µM (active) | > 30 µM (inactive) | > 30 µM (inactive) | 1.12 µM (active) | CC(C)c1cc(CNc2nc(Nc3cc(C4CC4)[nH]n3)cc(N3CCN(C)CC3)n2)on1 [XL-228]
5.56 µM (active) | > 30 µM (inactive) | > 30 µM (inactive) | 0.085 µM (active) | > 30 µM (inactive) | 2.21 µM | 0.408 µM (active) | 5.89 µM (active) | – | Cc1nc(Nc2n[nH]c3c2CN(C(=O)N[C@H](CN(C)C)c2ccccc2)C3(C)C)c2sccc2n1 [PF-03758309]
0.574 µM (active) | > 30 µM (inactive) | > 30 µM (inactive) | > 30 µM (inactive) | > 30 µM (inactive) | > 30 µM (inactive) | > 30 µM (inactive) | 3.38 µM (active) | – | O=C(Nc1c[nH]nc1-c1nc2cc(CN3CCOCC3)ccc2[nH]1)NC1CC1 [AT-9283]
> 30 µM (inactive) | > 30 µM (inactive) | > 30 µM (inactive) | > 30 µM (inactive) | – | > 30 µM (inactive) | > 30 µM (inactive) | > 30 µM (inactive) | > 30 µM (inactive) | Cn1cc(-c2cnn3c(N)c(Br)c([C@@H]4CCCNC4)nc23)cn1 [SCH-900776]
